Assay results from ChEMBL document CHEMBL1159305, “Vidalenolone, a novel phenolic metabolite from the tropical red alga Vidalia sp” (J Nat Prod, 2002).
Activity calls are given as the source filed them.

Experiments:
[1] = target: Adapter molecule crk (Homo sapiens) (UniProt P46108); experiment: Inhibition of GST-tagged human recombinant full length Crk SH2 domain expressed in Escherichia coli […] binding to biotinylated phosphotyrosine-containing peptide by ELISA
[2] = target: Growth factor receptor-bound protein 2 (Homo sapiens) (UniProt P62993); experiment: Inhibition of GST-tagged human recombinant full length Grb2 SH2 domain expressed in Escherichia coli […] binding to biotinylated phosphotyrosine-containing peptide by ELISA
Growth factor receptor-bound protein 2 (Homo sapiens), sequence (P62993 whole entry, looked up, the tested form may be a part): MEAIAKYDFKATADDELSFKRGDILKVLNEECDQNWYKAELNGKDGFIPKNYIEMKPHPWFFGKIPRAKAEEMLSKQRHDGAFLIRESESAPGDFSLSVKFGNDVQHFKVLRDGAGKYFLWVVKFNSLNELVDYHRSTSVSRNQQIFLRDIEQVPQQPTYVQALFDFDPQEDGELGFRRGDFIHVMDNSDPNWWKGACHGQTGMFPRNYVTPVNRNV

[3] = target: Tyrosine-protein kinase Fyn (Homo sapiens) (UniProt P06241); experiment: Inhibition of GST-tagged human recombinant full length Fyn SH2 domain expressed in Escherichia coli […] binding to biotinylated phosphotyrosine-containing peptide by ELISA
Tyrosine-protein kinase Fyn (Homo sapiens), sequence (P06241 2-537 limits assumed): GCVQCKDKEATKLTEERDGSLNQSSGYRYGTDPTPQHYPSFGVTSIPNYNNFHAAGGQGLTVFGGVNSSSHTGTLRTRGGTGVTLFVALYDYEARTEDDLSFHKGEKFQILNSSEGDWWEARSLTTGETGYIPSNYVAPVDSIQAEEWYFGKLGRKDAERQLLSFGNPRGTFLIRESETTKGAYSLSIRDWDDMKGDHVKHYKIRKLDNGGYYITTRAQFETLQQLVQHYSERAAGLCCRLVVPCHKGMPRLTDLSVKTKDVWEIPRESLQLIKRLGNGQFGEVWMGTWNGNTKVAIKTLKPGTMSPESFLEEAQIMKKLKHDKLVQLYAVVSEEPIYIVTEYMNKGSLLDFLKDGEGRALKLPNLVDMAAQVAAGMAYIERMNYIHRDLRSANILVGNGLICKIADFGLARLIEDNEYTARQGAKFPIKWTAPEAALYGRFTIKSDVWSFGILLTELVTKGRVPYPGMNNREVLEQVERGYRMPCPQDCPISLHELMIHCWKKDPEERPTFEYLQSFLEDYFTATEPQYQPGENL

[4] = target: Tyrosine-protein kinase ABL1 (Homo sapiens) (UniProt P00519); experiment: Inhibition of GST-tagged human recombinant full length Abl SH2 domain expressed in Escherichia coli […] binding to biotinylated phosphotyrosine-containing peptide by ELISA
Tyrosine-protein kinase ABL1 (Homo sapiens), sequence (P00519 whole entry, the tested form may be a part): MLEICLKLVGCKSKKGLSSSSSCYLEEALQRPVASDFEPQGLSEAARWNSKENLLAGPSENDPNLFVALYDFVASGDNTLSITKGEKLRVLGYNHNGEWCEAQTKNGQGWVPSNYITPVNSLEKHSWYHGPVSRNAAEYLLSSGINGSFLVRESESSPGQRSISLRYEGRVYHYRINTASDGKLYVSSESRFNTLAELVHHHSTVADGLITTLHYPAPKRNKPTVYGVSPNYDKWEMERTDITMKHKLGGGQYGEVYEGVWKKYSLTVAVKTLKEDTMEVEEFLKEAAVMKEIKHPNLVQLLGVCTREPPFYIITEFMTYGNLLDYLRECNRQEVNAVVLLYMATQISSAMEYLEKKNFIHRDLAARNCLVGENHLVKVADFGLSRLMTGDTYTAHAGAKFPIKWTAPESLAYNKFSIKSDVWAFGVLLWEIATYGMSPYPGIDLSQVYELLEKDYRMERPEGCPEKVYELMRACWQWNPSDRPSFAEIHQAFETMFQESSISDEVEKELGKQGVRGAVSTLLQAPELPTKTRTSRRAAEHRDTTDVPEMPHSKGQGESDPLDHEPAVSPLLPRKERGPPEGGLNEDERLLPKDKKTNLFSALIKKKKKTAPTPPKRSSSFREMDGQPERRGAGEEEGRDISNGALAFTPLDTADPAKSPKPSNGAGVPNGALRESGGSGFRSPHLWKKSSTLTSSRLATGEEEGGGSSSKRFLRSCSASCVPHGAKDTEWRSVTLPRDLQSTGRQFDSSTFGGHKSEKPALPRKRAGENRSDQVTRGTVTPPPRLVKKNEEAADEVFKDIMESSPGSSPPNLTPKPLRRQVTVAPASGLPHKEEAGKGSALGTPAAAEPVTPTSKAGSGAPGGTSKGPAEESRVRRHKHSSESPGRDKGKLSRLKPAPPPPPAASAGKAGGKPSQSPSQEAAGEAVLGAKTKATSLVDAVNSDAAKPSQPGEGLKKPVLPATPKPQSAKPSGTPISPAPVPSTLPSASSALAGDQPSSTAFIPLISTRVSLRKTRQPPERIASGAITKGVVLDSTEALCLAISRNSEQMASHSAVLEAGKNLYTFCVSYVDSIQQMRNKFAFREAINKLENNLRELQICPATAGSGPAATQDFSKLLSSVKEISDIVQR

Measured: Activity

Adapter molecule crk (Homo sapiens), sequence (P46108 whole entry, the tested form may be a part): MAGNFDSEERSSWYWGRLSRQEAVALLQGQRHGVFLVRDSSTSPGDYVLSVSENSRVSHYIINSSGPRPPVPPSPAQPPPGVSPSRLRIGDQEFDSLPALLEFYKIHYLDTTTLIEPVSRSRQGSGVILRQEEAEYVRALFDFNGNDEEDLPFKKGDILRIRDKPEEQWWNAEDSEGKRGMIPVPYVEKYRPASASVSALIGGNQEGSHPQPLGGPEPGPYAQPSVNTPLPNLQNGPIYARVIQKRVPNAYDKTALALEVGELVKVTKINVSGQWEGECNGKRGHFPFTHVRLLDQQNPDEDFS

CCOCc1cc(O)c(O)c(Br)c1Br
inactive: [1] | [2] | [3] | [4]

OCc1ccc(O)cc1
inactive: [1] | [2] | [3] | [4]

COC1(Cc2ccc(O)cc2)CC=C(O)C1=O (configuration not stated)
inactive: [1] | [2] | [3] | [4]
